Experiment: xn = mol fraction of the nth substance listed
Conditions: for surface tension liquid-gas: wilhelmi plate; for viscosity / speed of sound / mass density: 100 kPa, Liquid; for viscosity: Capillary tube (Ostwald / Ubbelohde) method; for speed of sound: Frequency=3 MHz, Sing-around technique in a fixed-path interferometer; for mass density: Vibrating tube method

CN(C)CCN [2-dimethylamino-1-ethylamine] + O
Conditions	mass density [kg/m3]	speed of sound [m/s]	surface tension liquid-gas [mN/m]	viscosity [mPa·s]
293.15 K, x1 = 0.1002	975	1773.4	42.6	6.83
293.15 K, x1 = 0.2	952	1708.6	37.1	12.66
293.15 K, x1 = 0.3002	920	1605.4	32.9	10.5
293.15 K, x1 = 0.3996	895	1517.2	30.6	6.463
293.15 K, x1 = 0.5035	874	1456.6	29.4	3.875
293.15 K, x1 = 0.5995	858	1419.2	28.6	2.743
293.15 K, x1 = 0.7007	844	1387.2	27.9	1.965
293.15 K, x1 = 0.8002	833	1349.8	27.4	1.464
293.15 K, x1 = 0.8999	825	1328	26.9	1.162
293.15 K, x1 = 1	819	1319.6	26.4	0.988
303.15 K, x1 = 0.1002	970	1743.6	41.9	4.28
303.15 K, x1 = 0.2	943	1672.8	36.3	7.355
303.15 K, x1 = 0.3002	912	1568.6	32.2	6.268
303.15 K, x1 = 0.3996	886	1480.2	29.8	4.148
303.15 K, x1 = 0.5035	865	1419.2	28.6	2.709
303.15 K, x1 = 0.5995	849	1381.6	27.8	2.013
303.15 K, x1 = 0.7007	835	1349	27.1	1.51
303.15 K, x1 = 0.8002	824	1305.2	26.6	1.161
303.15 K, x1 = 0.8999	816	1288.7	26.1	0.94
303.15 K, x1 = 1	810	1279.3	25.8	0.819
313.15 K, x1 = 0.1002	963	1712.8	41.3	2.891
313.15 K, x1 = 0.2	935	1636.1	35.2	4.689
313.15 K, x1 = 0.3002	901	1531.3	31.2	4.105
313.15 K, x1 = 0.3996	877	1443.1	28.9	2.884
313.15 K, x1 = 0.5035	856	1381.8	27.8	2.019
313.15 K, x1 = 0.5995	840	1343.3	27	1.552
313.15 K, x1 = 0.7007	826	1310.3	26.3	1.192
313.15 K, x1 = 0.8002	814	1266.2	25.8	0.937
313.15 K, x1 = 0.8999	806	1249.2	25.3	0.773
313.15 K, x1 = 1	801	1239	25.2	0.693
323.15 K, x1 = 0.1002	955	1682	40.4	2.069
323.15 K, x1 = 0.2	926	1598.4	34.3	3.179
323.15 K, x1 = 0.3002	893	1493.1	30.6	2.853
323.15 K, x1 = 0.3996	868	1411.3	27.9	2.105
323.15 K, x1 = 0.5035	847	1343.5	27.1	1.519
323.15 K, x1 = 0.5995	831	1305.1	26.4	1.201
323.15 K, x1 = 0.7007	817	1271.7	25.7	0.967
323.15 K, x1 = 0.8002	806	1227	25.2	0.804
323.15 K, x1 = 0.8999	797	1209.1	24.7	0.686
323.15 K, x1 = 1	791	1199.3	24.5	0.596

Source: the NIST ThermoML archive (doi:10.1021/acs.jced.5b00447)
